What was measured:
[1] = tested on: Lb. fermentum; experiment: Wheat mash fermentation contaminated with Lb. fermentum; assay type: cell-based, Lactobacillus fermentum; conditions: Example 5, inoculated 10^7 CFU/mL; Penicillin G 0.25 ppm, Virginiamycin 0.5 ppm, hop products at effective concentration
Description: The clean breed strains were kept frozen at −101.2° F. in MRS-broth containing 8%-glycerol and were inoculated from there in 10 mL cap tubes containing 2 mL MRS-broth. The headspace of each tube was flushed with filter sterilized (0.45 μm pore size membrane filter) CO2-gas and the caps were sealed with paraffin wax coated film. The tubes were incubated in a controlled environmental shaker at 100 rpm at 86° F. (Lb. brevis) and 96.8° F. (Lb. fermentum). After 12 hours 1 mL of these preparatory cultures were each transferred into 10 mL cap tubes containing 9 mL MRS-broth and incubated for another 24 hours, afterwards transferred to 100 mL screw cap flasks containing 90 mL of MRS-broth and again incubated at the appropriate temperature for 24 hours. These portions were transferred to 1 L screw cap flasks, containing 750 mL MRS-broth and were again incubated for 24 hours.
For inoculation of wheat mash the bacterial cells were aseptically harvested in sterile centrifugal tubes by centrifugation at 10,200×g for 15 minutes at 4° C. […]
Cell numbers of the organisms were estimated using a Beck photometer. […] Appropriate quantities of the concentrated cell suspension were added to 500 g quantities of wheat mash in laboratory fermentation flasks to give initial viable cell numbers of 10^7 CFU/mL. […]

[2] = below pH 5; cited from earlier work
[3] = tested on: Lb. fermentum; experiment: Sugar beet molasses wort fermentation contaminated with Lb. fermentum; assay type: cell-based, Lactobacillus fermentum; conditions: 10^6 CFU/mL, Virginiamycin 0.5 ppm
Description: (§1) The clean breed strains were kept frozen at −101.2° F. in MRS-broth containing 8%-glycerol and were inoculated from there in 10 mL cap tubes containing 2 mL MRS-broth. The headspace of each tube was flushed with filter sterilized (0.45 μm pore size membrane filter) CO2-gas and the caps were sealed with paraffin wax coated film. The tubes were incubated in a controlled environmental shaker at 100 rpm at 86° F. (Lb. brevis) respectively 96.8° F. (Lb. fermentum). […] A filter sterilized (0.45 μm pore size membrane filter) 5 μl aliquot of the MRS-cell suspension for inoculation was determined by high performance liquid chromatography using a ProntoSIL 120-3-C18 AQ column which analyzes sugars, organic acids and alcohol, making sure glucose in the MRS-medium would be totally consumed and determining the amount of lactic acid an acetic acid added to fresh wort. Appropriate quantities of cell suspension were added to give a total of 500 g mash in laboratory fermentation flasks and initial viable bacterial cell numbers of 10^6 CFU/mL mash. The pH-value of the wort was afterwards readjusted to pH 5.2 if necessary. […]
(§2) The content of sucrose in beet molasses was determined by polarimeter after clarification with lead acetate. […]

[4] = tested on: lactobacillus; conditions: stated as fact for comparison with ISOHOP; cited from earlier work
[5] = tested on: Lb. brevis; experiment: Sugar beet molasses wort fermentation contaminated with Lb. brevis; assay type: cell-based, Lactobacillus brevis; conditions: 10^6 CFU/mL, Virginiamycin 0.5 ppm
Description: as §1, §2

Row | Molecule | viable cells after fermentation, Lb. fermentum [1] | stability [2] | viable cells after fermentation, Lb. fermentum [3] | reduction of bacteria count [4] | viable cells after fermentation, Lb. brevis [5]
1 | CC1(C)S[C@@H]2[C@H](NC(=O)Cc3ccccc3)C(=O)N2[C@H]1C(=O)O [Penicillin G] | practically no effect | rather poor stability |  |  | 
2 | Virginiamycin | 10^3 cells/mL |  | no viable cells | 50% | no viable cells

Reference: patent US20040044087A1, “Use of hop acids in fuel ethanol production” (priority 1999, published 2004)
